Measured values taken from patent US12202835B2, “Substituted aromatic ring-linked dioxinoquinazolines and dioxinoquinolines as kinase inhibitors” (BEIJING SCITECH-MQ PHARMACEUTICALS LIMITED, priority 2018, dated 2025).

Assays:
Ba/F3 LMNA-NTRK1 cells = assay: Assay for inhibiting the proliferation of Ba/F3 LMNA-NTRK1 cells (CCK-8); format: cell-based; settings: Mus musculus, BaF3
Procedure, shortened: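 Cells were seeded and cultured overnight, then treated with graded compound concentrations (final DMSO 0.25%) for 72 h. CCK-8 was added for 1–2 h at 37 °C and OD450 read. Survival was normalised to untreated and cell-free blank wells, and IC50 was fitted.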

MER kinase = MER kinase (Homo sapiens (Human), UniProt Q12866); assay: Assay of small molecular compounds for inhibiting the activity of MER kinase (LANCE TR-FRET); format: biochemical
MER kinase, sequence (Q12866 21-999): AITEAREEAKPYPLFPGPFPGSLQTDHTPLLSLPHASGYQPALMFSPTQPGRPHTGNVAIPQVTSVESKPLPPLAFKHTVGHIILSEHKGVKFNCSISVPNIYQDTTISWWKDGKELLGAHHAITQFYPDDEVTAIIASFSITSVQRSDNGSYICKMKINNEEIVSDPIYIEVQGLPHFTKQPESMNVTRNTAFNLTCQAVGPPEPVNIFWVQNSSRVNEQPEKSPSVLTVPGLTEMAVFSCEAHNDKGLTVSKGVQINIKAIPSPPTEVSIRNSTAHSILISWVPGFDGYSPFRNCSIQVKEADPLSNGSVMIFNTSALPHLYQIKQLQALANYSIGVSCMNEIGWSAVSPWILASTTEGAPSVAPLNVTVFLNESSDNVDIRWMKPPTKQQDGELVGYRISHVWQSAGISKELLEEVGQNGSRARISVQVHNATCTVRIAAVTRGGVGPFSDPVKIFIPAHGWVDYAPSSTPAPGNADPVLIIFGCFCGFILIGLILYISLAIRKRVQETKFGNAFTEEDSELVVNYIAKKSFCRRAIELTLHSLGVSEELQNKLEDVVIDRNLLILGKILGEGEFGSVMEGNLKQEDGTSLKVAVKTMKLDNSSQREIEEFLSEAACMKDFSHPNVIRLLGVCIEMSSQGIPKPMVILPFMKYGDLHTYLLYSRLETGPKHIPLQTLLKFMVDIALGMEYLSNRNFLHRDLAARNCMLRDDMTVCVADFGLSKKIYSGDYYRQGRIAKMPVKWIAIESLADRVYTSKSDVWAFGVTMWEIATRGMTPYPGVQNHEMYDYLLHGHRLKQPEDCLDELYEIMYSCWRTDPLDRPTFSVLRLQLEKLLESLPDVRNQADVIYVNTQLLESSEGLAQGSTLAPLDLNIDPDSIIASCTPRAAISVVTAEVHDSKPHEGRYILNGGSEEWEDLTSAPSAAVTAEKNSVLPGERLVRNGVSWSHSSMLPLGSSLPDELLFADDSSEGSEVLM
Procedure, shortened: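 MER kinase preincubated 5 min at RT with compound (11 points, 0.042-2500 nM final), then ULight-poly GT and ATP added (4× stocks 200 nM and 20 μM) for 60 min at RT, 1% DMSO. Phosphorylation detected by LANCE TR-FRET; IC50 from % inhibition versus controls.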

TRKA kinase = TRKA kinase (Homo sapiens (Human), UniProt P04629); assay: Assay of small molecular compounds for inhibiting the activity of TRKA kinase (LANCE TR-FRET); format: biochemical
TRKA kinase, sequence (P04629 33-796): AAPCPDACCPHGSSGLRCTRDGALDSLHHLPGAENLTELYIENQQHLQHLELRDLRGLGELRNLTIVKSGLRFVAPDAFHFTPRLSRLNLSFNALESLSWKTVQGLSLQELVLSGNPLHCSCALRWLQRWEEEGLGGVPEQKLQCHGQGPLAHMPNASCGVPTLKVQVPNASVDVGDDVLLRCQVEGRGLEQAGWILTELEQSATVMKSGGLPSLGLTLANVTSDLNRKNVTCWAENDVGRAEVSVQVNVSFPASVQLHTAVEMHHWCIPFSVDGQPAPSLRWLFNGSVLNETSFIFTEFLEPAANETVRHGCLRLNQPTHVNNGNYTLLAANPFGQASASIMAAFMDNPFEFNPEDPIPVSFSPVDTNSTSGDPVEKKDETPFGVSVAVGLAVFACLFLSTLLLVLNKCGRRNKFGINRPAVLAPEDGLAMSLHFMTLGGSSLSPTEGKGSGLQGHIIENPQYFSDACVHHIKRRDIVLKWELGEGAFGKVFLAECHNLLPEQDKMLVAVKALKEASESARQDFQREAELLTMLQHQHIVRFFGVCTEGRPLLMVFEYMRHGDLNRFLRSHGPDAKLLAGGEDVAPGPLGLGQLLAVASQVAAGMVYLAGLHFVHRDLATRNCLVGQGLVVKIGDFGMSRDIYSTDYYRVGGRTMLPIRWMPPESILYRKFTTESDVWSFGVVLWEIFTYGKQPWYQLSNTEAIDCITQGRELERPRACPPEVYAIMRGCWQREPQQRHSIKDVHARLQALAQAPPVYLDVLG
Procedure, shortened: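 LANCE TR-FRET with ULight-TK peptide; compounds pre-incubated 5 min with TRKA (2× solution 2 nM), then substrate/ATP added (4× mix: 400 nM peptide, 40 μM ATP). Reaction 60 min at room temperature in dark, 1% DMSO final; stopped, detection developed 60 min, signal read.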

Row | SMILES | IC50 (Ba/F3 LMNA-NTRK1 cells) | IC50 (MER kinase) | IC50 (TRKA kinase)
1 | CCOc1ccn(-c2ccc(F)cc2)c(=O)c1C(=O)Nc1ccc(Oc2ccnc3cc(OCCCN4CCC(C)(O)CC4)c4c(c23)OCCO4)c(F)c1 [Example 69, N-(4-((5-(3-(4-hydroxy-4-methylpiperidin-1-yl)propoxy)-2,3-dihydro-[1,4]dioxino[2,3-f]quinolin-10-yl)oxy)-3-fluorophenyl)-4-ethoxy-1-(4-fluorophenyl)-2-oxo-1,2-dihydropyridine-3-carboxamide] | < 50 nM | ≤ 50 nM | < 50 nM
2 | CCOc1ccn(-c2ccc(F)cc2)c(=O)c1C(=O)Nc1ccc(Oc2ccnc3cc(OCCCN4CCOCC4)c4c(c23)OCCO4)cc1Cl [Example 73, N-(2-chloro-4-((5-(3-morpholinopropoxy)-2,3-dihydro-[1,4]dioxino[2,3-f]quinolin-10-yl)oxy)phenyl)-4-ethoxy-1-(4-fluorophenyl)-2-oxo-1,2-dihydropyridine-3-carboxamide] | < 50 nM | ≤ 50 nM | < 50 nM
3 | CC(C)n1cc(C(=O)Nc2ccc(Oc3ccnc4cc(OCCCN5CCS(=O)(=O)CC5)c5c(c34)OCCO5)c(F)c2)c(=O)n(-c2ccc(F)cc2)c1=O [Example 76, N-(3-fluoro-4-((5-(3-(1,1-dioxidothiomorpholino)propoxy)-2,3-dihydro-[1,4]dioxino[2,3-f]quinolin-10-yl)oxy)phenyl)-3-(4-fluorophenyl)-1-isopropyl-2,4-dioxo-1,2,3,4-tetrahydropyrimidine-5-carboxamide] | < 50 nM | ≤ 50 nM | < 50 nM
4 | CC(C)n1cc(C(=O)Nc2ccc(Oc3ccnc4cc(OCCCN5CCCC5)c5c(c34)OCCO5)c(F)c2)c(=O)n(-c2ccc(F)cc2)c1=O [Example 77, N-(3-fluoro-4-((5-(3-(pyrrolidin-1-yl)propoxy)-2,3-dihydro-[1,4]dioxino[2,3-f]quinolin-10-yl)oxy)phenyl)-3-(4-fluorophenyl)-1-isopropyl-2,4-dioxo-1,2,3,4-tetrahydropyrimidine-5-carboxamide] | < 50 nM | ≤ 50 nM | < 50 nM
5 | CC(C)n1cc(C(=O)Nc2ccc(Oc3ccnc4cc(OCCO)c5c(c34)OCCO5)c(F)c2)c(=O)n(-c2ccc(F)cc2)c1=O [Example 78, N-(3-fluoro-4-((5-(2-hydroxyethoxy)-2,3-dihydro-[1,4]dioxino[2,3-f]quinolin-10-yl)oxy)phenyl)-3-(4-fluorophenyl)-1-isopropyl-2,4-dioxo-1,2,3,4-tetrahydropyrimidine-5-carboxamide] | < 50 nM | ≤ 50 nM | < 50 nM
6 | Cn1cc(C(=O)Nc2ccc(Oc3ccnc4cc(OC5CCOC5)c5c(c34)OCCO5)c(F)c2)c(=O)n(-c2ccc(F)cc2)c1=O (stereo not drawn) [Example 90, N-(3-fluoro-4-((5-((tetrahydrofuran-3-yl)oxy)-2,3-dihydro-[1,4]dioxino[2,3-f]quinolin-10-yl)oxy)phenyl)-3-(4-fluorophenyl)-1-methyl-2,4-dioxo-1,2,3,4-tetrahydropyrimidine-5-carboxamide] | < 50 nM | ≤ 50 nM | < 50 nM
7 | Cn1cc(C(=O)Nc2ccc(Oc3ccnc4cc(OC5CCOCC5)c5c(c34)OCCO5)c(F)c2)c(=O)n(-c2ccc(F)cc2)c1=O [Example 91, N-(3-fluoro-4-((5-((tetrahydropyran-4-yl)oxy)-2,3-dihydro-[1,4]dioxino[2,3-f]quinolin-10-yl)oxy)phenyl)-3-(4-fluorophenyl)-1-methyl-2,4-dioxo-1,2,3,4-tetrahydropyrimidine-5-carboxamide] | < 50 nM | ≤ 50 nM | < 50 nM
8 | CC(C)n1cc(C(=O)Nc2ccc(Oc3ccnc4cc(OCCCN5CCC(C)(N)CC5)c5c(c34)OCCO5)c(F)c2)c(=O)n(-c2ccc(F)cc2)c1=O [Example 93, N-(3-fluoro-4-((5-(3-(4-amino-4-methylpiperidin-1-yl)propoxy)-2,3-dihydro-[1,4]dioxino[2,3-f]quinolin-10-yl)oxy)phenyl)-3-(4-fluorophenyl)-1-isopropyl-2,4-dioxo-1,2,3,4-tetrahydropyrimidine-5-carboxamide] | 200 to 1000 nM | ≤ 50 nM | < 50 nM

Other lines, results leading:

Row | IC50 (Ba/F3 LMNA-NTRK1 cells) | IC50 (MER kinase) | IC50 (TRKA kinase) | SMILES
9 | < 50 nM | ≤ 50 nM | < 50 nM | CCOc1ccn(-c2ccc(F)cc2)c(=O)c1C(=O)Nc1ccc(Oc2ccnc3cc(OCCCN(C)CCOC)c4c(c23)OCCO4)c(F)c1 [Example 70, N-(4-((5-(3-((2-methoxyethyl)(methyl)amino)propoxy)-2,3-dihydro-[1,4]dioxino[2,3-f]quinolin-10-yl)oxy)-3-fluorophenyl)-4-ethoxy-1-(4-fluorophenyl)-2-oxo-1,2-dihydropyridine-3-carboxamide]
10 | < 50 nM | ≤ 50 nM | < 50 nM | CCOc1ccn(-c2ccc(F)cc2)c(=O)c1C(=O)Nc1ccc(Oc2ccnc3cc(OCCCN(C)C4CCC4)c4c(c23)OCCO4)c(F)c1 [Example 71, N-(4-((5-(3-(cyclobutyl(methyl)amino)propoxy)-2,3-dihydro-[1,4]dioxino[2,3-f]quinolin-10-yl)oxy)-3-fluorophenyl)-4-ethoxy-1-(4-fluorophenyl)-2-oxo-1,2-dihydropyridine-3-carboxamide]
11 | < 50 nM | ≤ 50 nM | < 50 nM | CCOc1ccn(-c2ccc(F)cc2)c(=O)c1C(=O)Nc1ccc(Oc2ccnc3cc(OCCCN4CCOCC4)c4c(c23)OCCO4)c(Cl)c1 [Example 72, N-(4-((5-(3-morpholinopropoxy)-2,3-dihydro-[1,4]dioxino[2,3-f]quinolin-10-yl)oxy)-3-chlorophenyl)-4-ethoxy-1-(4-fluorophenyl)-2-oxo-1,2-dihydropyridine-3-carboxamide]
12 | < 50 nM | ≤ 50 nM | < 50 nM | CN1CCN(CCCOc2cc3nccc(Oc4ccc(NC(=O)c5cn(C)c(=O)n(-c6ccc(F)cc6)c5=O)cc4F)c3c3c2OCCO3)CC1 [Example 74, N-(3-fluoro-4-((5-(3-(4-methylpiperazin-1-yl)propoxy)-2,3-dihydro-[1,4]dioxino[2,3-f]quinolin-10-yl)oxy)phenyl)-3-(4-fluorophenyl)-1-methyl-2,4-dioxo-1,2,3,4-tetrahydropyrimidine-5-carboxamide]
13 | < 50 nM | ≤ 50 nM | < 50 nM | CC(=O)N1CCN(CCCOc2cc3nccc(Oc4ccc(NC(=O)c5cn(C(C)C)c(=O)n(-c6ccc(F)cc6)c5=O)cc4F)c3c3c2OCCO3)CC1 [Example 75, N-(3-fluoro-4-((5-(3-(4-acetylpiperazin-1-yl)propoxy)-2,3-dihydro-[1,4]dioxino[2,3-f]quinolin-10-yl)oxy)phenyl)-3-(4-fluorophenyl)-1-isopropyl-2,4-dioxo-1,2,3,4-tetrahydropyrimidine-5-carboxamide]
14 | < 50 nM | ≤ 50 nM | < 50 nM | CC(C)n1cc(C(=O)Nc2ccc(Oc3ccnc4cc(OCCCO)c5c(c34)OCCO5)c(F)c2)c(=O)n(-c2ccc(F)cc2)c1=O [Example 79, N-(3-fluoro-4-((5-(3-hydroxypropoxy)-2,3-dihydro-[1,4]dioxino[2,3-f]quinolin-10-yl)oxy)phenyl)-3-(4-fluorophenyl)-1-isopropyl-2,4-dioxo-1,2,3,4-tetrahydropyrimidine-5-carboxamide]
15 | < 50 nM | ≤ 50 nM | < 50 nM | COCCCOc1cc2nccc(Oc3ccc(NC(=O)c4cn(C)c(=O)n(-c5ccc(F)cc5)c4=O)cc3F)c2c2c1OCCO2 [Example 80, N-(3-fluoro-4-((5-(3-methoxypropoxy)-2,3-dihydro-[1,4]dioxino[2,3-f]quinolin-10-yl)oxy)phenyl)-3-(4-fluorophenyl)-1-methyl-2,4-dioxo-1,2,3,4-tetrahydropyrimidine-5-carboxamide]
16 | 50 to 200 nM | ≤ 50 nM | < 50 nM | CC(C)n1cc(C(=O)Nc2ccc(Oc3ccnc4cc(OCCCN5CCC(C)(C)CC5)c5c(c34)OCCO5)c(F)c2)c(=O)n(-c2ccc(F)cc2)c1=O [Example 92, N-(3-fluoro-4-((5-(3-(4,4-dimethylpiperidin-1-yl)propoxy)-2,3-dihydro-[1,4]dioxino[2,3-f]quinolin-10-yl)oxy)phenyl)-3-(4-fluorophenyl)-1-isopropyl-2,4-dioxo-1,2,3,4-tetrahydropyrimidine-5-carboxamide]
